In test [1] the test system is HeLa, HepG2, T24, and TOV-21G. Kind of test: MTT cytotoxicity, all evaluated cancer cells (summary). The test is classed as cell-based. The conditions noted are these: Homo sapiens, read-out: IC50 values against all evaluated cancer cells. The procedure: (§1) Cytotoxicity was determined using the MTT colorimetric assay, and half-maximal inhibitory concentrations (IC50, μM) were obtained for all cell lines (Table ). The selectivity index (SI) was calculated as the ratio of IC50 MRC-5/IC50 cancer cell line. Doxorubicin was employed as a positive control due to its broad-spectrum clinical use, either alone or in combination, against hepatocellular, ovarian, cervical, and bladder cancers. −
In vitro biological assays were performed by using five human cell lines for cytotoxicity evaluation. […]
Two hours prior to end point reading, 20 μL of MTT [3-(4,5-dimethylthiazol-2-yl)-2,5-diphenyltetrazolium bromide] solution (1.0 mg/mL in sterile phosphate-buffered saline, Sigma-Aldrich) was added to each well. […] After the appropriate incubation, absorbance was measured by using a VICTOR X3 microplate reader (PerkinElmer), and data were processed with WorkOut 2.5 software at a wavelength of 490 nm. […] The percentage of cytotoxicity was calculated using the equation % cytotoxicity = [(A – B)/A] × 100, where A is the optical density (OD4 9 0) of untreated control cells and B is the OD4 9 0 of treated cells.
(§2) Cytotoxicity was expressed as the 50% cytotoxic concentration (CC5 0), representing the concentration of sample required to reduce cell viability by 50% relative to that of the untreated control.

In test [2] the test system is T24: human urinary bladder carcinoma cells. In words: MTT cytotoxicity assay on T24 cells. It counts as cell-based. The procedure:
as §1
(§3) In vitro biological assays were performed by using five human cell lines for cytotoxicity evaluation. HepG2 cells (ATCC HB-8065), derived from a human hepatocellular carcinoma of the liver (person), were cultured in Dulbecco’s modified Eagle medium (DMEM) supplemented with 5% fetal bovine serum (FBS), penicillin/streptomycin (100 IU/mL), and amphotericin B (5 μg/mL), in a humidified incubator with 5% CO2 at 37 °C. These cells were plated at a concentration of 2.0 × 10^4 cells/well in 96-well microplates. MRC-5 cells (ATCC CCL-171), derived from human lung fibroblasts of a […] fetus, were cultured under the same conditions and plated at 1.0 × 10^4 cells/well. T24 cells (ATCC HTB-4), established from a transitional cell carcinoma of the bladder (person), were also cultured under identical conditions and plated at a density of 1.0 × 10^4 cells/well. TOV-21G cells (ATCC CRL-11730), derived from a primary malignant ovarian adenocarcinoma (person), were maintained in DMEM with the same supplementation and environmental conditions and plated at 5.0 × 10^4 cells/well. […]
(§4) HeLa, HepG2, MRC-5, T24, and TOV-21G cells were suspended in a culture medium supplemented with 5% fetal bovine serum (FBS) and seeded into 96-well microplates. The plates were incubated under a humidified atmosphere containing 5% CO2 at 37 °C for 24 h, allowing for adherence and monolayer formation. , Eight serial dilutions of the test samples, previously solubilized in dimethyl sulfoxide (DMSO), were prepared in DMEM supplemented with 1% FBS, covering a concentration range from […], and the results were converted to […]. The volume of DMSO in each well was limited to a final concentration not exceeding 2%. Following monolayer formation, the culture medium was aspirated and replaced with 100 μL of the diluted test samples and 100 μL of DMEM containing 1% FBS. The plates were then incubated under the same atmospheric and temperature conditions.
(§5) Two hours prior to end point reading, 20 μL of MTT [3-(4,5-dimethylthiazol-2-yl)-2,5-diphenyltetrazolium bromide] solution (1.0 mg/mL in sterile phosphate-buffered saline, Sigma-Aldrich) was added to each well. The incubation period following sample addition varied according to the cell line: 24 h for MRC-5, 48 h for T24, and 72 h for HeLa, HepG2, and TOV-21G. After the appropriate incubation, absorbance was measured by using a VICTOR X3 microplate reader (PerkinElmer), and data were processed with WorkOut 2.5 software at a wavelength of 490 nm. Formazan formation, resulting from the MTT reduction by metabolically active cells, was used as an indirect measure of cell viability. The percentage of cytotoxicity was calculated using the equation % cytotoxicity = [(A – B)/A] × 100, where A is the optical density (OD4 9 0) of untreated control cells and B is the OD4 9 0 of treated cells.
as §2
Background: Formazan colour is commonly taken as a measure of viable cells.

In test [3] the test system is MRC-5: human lung fibroblast cells. In words: MTT cytotoxicity assay on MRC-5 cells. The test is classed as cell-based. Conditions: MRC5, 24 h incubation, n = 3, ± standard deviation. The procedure: as §1, §3, §4, §5, §2
The next test concerns HepG2 cells. Kind of test: Clonogenic survival, HepG2. It counts as cell-based, human. The conditions noted are these: 4.62 and 9.25 μM, 48 h treatment, 10 days colony formation. As for the experimental part: The cells were cultured in DMEM (Sigma-Aldrich, St. Louis, USA) and supplemented with 10% fetal bovine serum (Cultilab Ltda., Campinas, Brazil) and antibiotics (amphotericin). They were incubated at 37 °C in a humidified atmosphere with 5% CO2. Control cell groups, which were not exposed to the compound, were included in the experiments and were conducted in triplicate. The chalcone was dissolved in dimethyl sulfoxide (DMSO) for the assays.
The cells were trypsinized and plated into 24-well plates at a density of 1.0 × 10^5 cells/mL. Afterward, they were treated with the chalcone at concentrations of 2.15, 4.62, 9.25, and 18.50 μM for 48 h. Following treatment, the cells were washed with Hanks’ solution and trypsinized again, and approximately 1000 cells were reseeded into 12-well plates. These cells were incubated for 10 days in a CO2 incubator to allow colony formation. After the incubation period, the culture medium was removed, and the cells were washed with Hanks’ solution. Fixation was performed using 4% formaldehyde for 20 min, followed by […] in 100% methanol for 20 min. The cells were then stained with a 0.5% crystal violet solution prepared in 25% methanol. […] Absorbance was measured at 570 nm using a spectrophotometer, and the results were expressed as the percentage of colonies formed relative to the untreated control group.

Molecules are shown by their SMILES.

With `CCCc1cc(/C=C/C(=O)c2ccc(C)cc2)c(OC)c(OC)c1` [compound 3, (E)-3-(2,3-Dimethoxy-5-propylphenyl)-1-(p-tolyl)-prop-2-en-1-one], the 50% inhibitory concentration (IC50) is 3.03 to 5.92 µM in test [1]; 5 ± 1.6 µM in test [2] (Homo sapiens, T-24, MTT, 48 h incubation, n = 3, NA: noncytotoxic at the concentrations tested); 55.5 ± 1.2 µM in test [3]. Moreover, the “SI (T24)” value in test [2] (IC50 MRC-5/IC50 T24) is listed as 11.1. Also, the “potency against T24 relative to hit 1” value in test [2] (ratio of IC50 values, 1 vs 3) was “more than 32 times”. The “colony formation, HepG2” value with HepG2 cells is reported as “reduction in colony formation”.

Broadly, the IC50 is the midpoint of a concentration-inhibition curve.

(Values after publication PMC12713470, “Design and Synthesis of Novel Chalcone Derivatives Targeting Bladder and Liver Cancer: Cytotoxicity Evaluation and Preliminary Mechanistic Studies” (ACS Omega, 2025).)
